The source of these data is patent US7910576B2, “Pyrrole derivatives as P2Y12 antagonists” (Sanofi-Aventis, priority 2007, dated 2011).

In the assay the target is T1, human P2Y12 receptor (Homo sapiens, UniProt Q9H244).
T1 construct: expressed in transfected cells; host or cells: Chinese Hamster Ovary (CHO) cells, membrane preparation
T1 sequence (Q9H244 whole entry): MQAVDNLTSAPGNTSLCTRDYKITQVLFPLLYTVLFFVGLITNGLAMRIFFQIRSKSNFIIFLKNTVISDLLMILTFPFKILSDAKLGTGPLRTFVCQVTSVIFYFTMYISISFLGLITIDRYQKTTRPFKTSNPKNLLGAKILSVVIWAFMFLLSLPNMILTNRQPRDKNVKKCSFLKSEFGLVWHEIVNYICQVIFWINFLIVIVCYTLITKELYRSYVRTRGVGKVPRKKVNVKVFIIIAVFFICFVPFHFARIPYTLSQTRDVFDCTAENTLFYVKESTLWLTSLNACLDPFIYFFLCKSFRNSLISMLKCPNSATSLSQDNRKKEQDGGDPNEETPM
The assay can be described thus: Human P2Y12 recombinant cell membrane binding assay. To be noted: competition against 33P 2MeS-ADP; membranes of CHO cells with recombinant human P2Y12 receptor; read-out: inhibition MeSADP binding P2Y12, IC 50. As for the experimental part:
Human P2Y12 Recombinant Cell Membrane Binding Assay
The ability of a test compound to bind to the P2Y12 receptor was evaluated in a recombinant cell membrane binding assay. In this competitive binding assay, the test compound competed against a radiolabeled agonist for binding to the P2Y12 receptor, expressed on the cell membrane. Inhibition of binding of the labeled material was measured and correlated to the amount and potency of the test compound. This binding assay is a modification of the procedure described by Takasaki, J. et. al, Mol. Pharmacol., 2001, Vol. 60, pg. 432.
As source of P2Y12, a membrane preparation was prepared from Chinese Hamster Ovary (CHO) cells with recombinant expression of the human P2Y12 receptor according to standard procedures.
To a 96-well microtiterplate the following were added: a) 24 μl of assay buffer (10 mM HEPES, 138 mM NaCl, […] KCl, 12 mM NaHCO3, 1 mM EDTA-Na, 0.1% BSA, pH 7.4) b) 1 μL compound in DMSO c) 50 μL P2Y12 CHO membrane (20 μg/ml) and after 15 min at RT d) 25 μL of 1.61 nM ^33P 2MeS— ADP (Perkin Elmer NEN custom synthesis, specific activity ˜2100 Ci/mmol) made in assay buffer.
After 20 min incubation at RT samples were transferred to 96-well microtiter filterplates (Millipore HTS GF/B), pre-wetted for 20 min with 300 μL of stop buffer (10 mM HEPES, 138 mM NaCl pH 7.4) and then filtered through completely with a Millipore plate vacuum. Next, wells were washed four times with 400 μl/well of stop buffer on a plate vacuum. The plate was disassembled and allowed to air dry overnight with the filter side up over night. The filter plates were snapped into adapter plates and 0.1 mL of Microscint 20 Scintillation Fluid (Perkin Elmer #6013621) was added to each well. The top of the filterplate was sealed with plastic plate covers. The sealed filterplate were incubated 2 hours at room temperature. A Microbeta Scintillation Counter was used to measure counts. The binding of compound is expressed as a % inhibition of specific binding, defined by subtraction of the background with 1 mM ADP. Compounds were diluted as 10 mM DMSO stocks and tested in a four-point, five-fold dilution series run in triplicate beginning at 10 μM, final concentration. Data were analyzed using a four-parameter curve fit with a fixed minimum and maximum experimentally defined as the average positive and negative controls on each plate.
As for `Cc1[nH]c(-c2ccccc2)cc1C(=O)C(=O)N1CCN(c2cccc(C(F)(F)F)c2)CC1` [Example 1, 1-(2-Methyl-5-phenyl-1H-pyrrol-3-yl)-2-[4-(3-trifluoromethyl-phenyl)-piperazin-1-yl]-ethane-1,2-dione], the IC50 is 500 nM.

For `Cc1[nH]c(-c2ccccc2)cc1C(=O)C(=O)N1CCN(c2ccc(Cl)c(C(F)(F)F)c2)CC1` [Example 10, 1-[4-(4-Chloro-3-trifluoromethyl-phenyl)-piperazin-1-yl]-2-(2-methyl-5-phenyl-1H-pyrrol-3-yl)-ethane-1,2-dione], the IC50 stood at 700 nM.

Consider `CCOC(=O)c1cccc(N2CCN(C(=O)C(=O)c3cc(-c4ccccc4)[nH]c3C)CC2)c1` [Example 33, 3-{4-[2-(2-Methyl-5-phenyl-1H-pyrrol-3-yl)-2-oxo-acetyl]-piperazin-1-yl}-benzoic acid ethyl ester], for which the IC50 worked out at 170 nM.

Consider `Cc1[nH]c(-c2ccccc2)cc1C(=O)C(=O)N1CCC(C(=O)c2ccc(Br)cc2)CC1` [Example 51, 1-[4-(4-Bromo-benzoyl)-piperidin-1-yl]-2-(2-methyl-5-phenyl-1H-pyrrol-3-yl)-ethane-1,2-dione], for which the IC50 stood at 710 nM.

For `Cc1[nH]c(-c2ccccc2)cc1C(=O)C(=O)N1CCC(C(=O)c2cccc(Cl)c2)CC1` [Example 52, 1-[4-(3-Chloro-benzoyl)-piperidin-1-yl]-2-(2-methyl-5-phenyl-1H-pyrrol-3-yl)-ethane-1,2-dione], the IC50 amounted to 520 nM.

Take `Cc1[nH]c(-c2ccccc2)c(/C=C/C(=O)O)c1C(=O)C(=O)N1CCN(c2cccc(C(F)(F)F)c2)CC1` [Example 71, (E)-3-(5-Methyl-4-{2-oxo-2-[4-(3-trifluoromethyl-phenyl)-piperazin-1-yl]-acetyl}-2-phenyl-1H-pyrrol-3-yl)-acrylic acid]: the IC50 is 30 nM.
